Like-named read-outs stand apart in the source and are kept apart here.
Columns and labels:
Bax = Bax level ELISA in MCF-7 cells; assay type: cell-based, human; settings: for Bax Conc.(pg/ml): MCF-7, at IC50, 24 h, control 83.16 ± 6.2; for Bax FLD: MCF-7, at IC50, fold of control cells
Procedure: (§1) MCF-7 cells were cultured in DMEM supplied with 10% FBS and incubated in 5% CO2 in air at 37 °C. […] Cell lysate was diluted using standard diluent buffer over the range of assay. Bax and Bcl-2 content in the lysate was assessed using human Bax ELISA kit (DRG, USA) and Bcl-2 ELISA Kit (Zymed Laboratories, Invitrogen Immuno-detection, Canada), respectively, according to the manufacturer’s instructions for each kit. The results were expressed as Mean ± SE of three independent experiments.

MCF-7 cells = assay: Annexin V-FITC/PI staining assay; assay type: cell-based, human; parameters: Apoptosis Total / Apoptosis Early / Apoptosis Late / Necrosis: unit not given here; settings: for increase in cell necrosis compared to control / increase of cell population in early apoptotic stage compared to control / increase of late apoptotic cell population compared to control: MCF-7, at IC50; for Apoptosis Late / Apoptosis Early / Necrosis / Apoptosis Total: MCF-7, at IC50, 24 h; for Apoptosis Late: control 0.15; for Apoptosis Early: control 0.38; for Necrosis: control 1.36; for Apoptosis Total: control 1.89
Procedure: Cells underwent three washing cycles using ice cold PBS, then suspended in PBS. Cell apoptosis was detected by Annexin V-FITC Apoptosis Detection Kit (BioVisionResearch Products, USA). The cells were stained using PI staining solution, Annexin V-FITC and incubated for 15 min at room temperature in a dark place. Cells were investigated by flow cytometry (Ex = 488 nm; Em = 530 nm) using FACS calibre (Becton Dickinson, Heidelberg, Germany)[48].

A549 = assay: MTT anti-proliferative assay; assay type: cell-based, human; settings: for IC50: Homo sapiens, A549, MTT, 24 h, mean ± SE of three experiments, read-out: IC50 (µM) ± S.E. A549
Procedure: (§2) The culture media were supplemented with 10% heat inactivated foetal bovine serum (FBS, HyClone, Thermo Scientific) and antibiotics (100 U/ml penicillin and 100 µg/ml streptomycin, HyClone, Thermo Scientific). The cells were incubated in a humidified atmosphere containing 5% CO2 (Heracell VIOS CO2 incubator, Thermo Scientific) in air at 37 °C.
(§3) MTT reagent, at volume equal to 10% of the culture medium volume, was added to the cultured cells and to the blank wells. The culture plates were re-incubated for 2–4 h depending on cell type and density. After the incubation period, culture plates were restored from the incubator and the obtained formazan crystals were dissolved in acidified isopropanol with continuous shaking using plate shaker (MaxQ 2000, Thermo Fisher Scientific Inc., MI, USA) at room temperature. Absorbance was measured spectrophotometrically at wavelength 570 nm using a plate reader (Stat FaxR 4200, Awareness Technology, Inc., FL, USA). […] Three independent experiments were performed for each compound and Mean ± SE were calculated.

MCF-7 = assay: MTT anti-proliferative assay; assay type: cell-based, human; settings: for IC50: Homo sapiens, MCF7
Procedure: as §2, §3

HCT-116 = assay: MTT anti-proliferative assay; assay type: cell-based, human; settings: for IC50: Homo sapiens, HCT-116, MTT, 24 h, mean ± SE of three experiments, read-out: IC50 (µM) ± S.E. HCT-116
Procedure: as §2, §3

Bcl-2 = Bcl-2 level ELISA in MCF-7 cells; assay type: cell-based, human; settings: for Bcl-2 Conc.(ng/ml): MCF-7, at IC50, 24 h, control 6.56 ± 0.22; for Bcl-2 FLD: MCF-7, at IC50, fold of control cells
Procedure: as §1

caspase-7 = assay: Caspase-7 ELISA in MCF-7 cells; assay type: cell-based, human; settings: for Caspase 7 FLD: MCF-7, at IC50, fold of control; for Caspase 7 Conc.(ng/ml): MCF-7, at IC50, control 0.45 ± 0.03
Procedure: The effect of 6a, 6c and 6i hybrids on caspase-7 and −9 levels in MCF-7 cell line was measured using Human Caspase-7 ELISA Kit (BioVision Inc., Milpitas, CA 95035 USA) and Human Caspase-9 ELISA Kit (EIA-4860, DRG, USA), respectively, and according to the manufacturer’s instructions. The results were expressed as Mean ± SE of three independent experiments.

EGFR = biological target: T1, EGFR (Homo sapiens, UniProt P00533); assay: EGFR kinase assay kit; assay type: biochemical; settings: mean ± SE
T1 construct: purchased BPS Bioscience, San Diego, CA, USA
T1 sequence (P00533 25-1210): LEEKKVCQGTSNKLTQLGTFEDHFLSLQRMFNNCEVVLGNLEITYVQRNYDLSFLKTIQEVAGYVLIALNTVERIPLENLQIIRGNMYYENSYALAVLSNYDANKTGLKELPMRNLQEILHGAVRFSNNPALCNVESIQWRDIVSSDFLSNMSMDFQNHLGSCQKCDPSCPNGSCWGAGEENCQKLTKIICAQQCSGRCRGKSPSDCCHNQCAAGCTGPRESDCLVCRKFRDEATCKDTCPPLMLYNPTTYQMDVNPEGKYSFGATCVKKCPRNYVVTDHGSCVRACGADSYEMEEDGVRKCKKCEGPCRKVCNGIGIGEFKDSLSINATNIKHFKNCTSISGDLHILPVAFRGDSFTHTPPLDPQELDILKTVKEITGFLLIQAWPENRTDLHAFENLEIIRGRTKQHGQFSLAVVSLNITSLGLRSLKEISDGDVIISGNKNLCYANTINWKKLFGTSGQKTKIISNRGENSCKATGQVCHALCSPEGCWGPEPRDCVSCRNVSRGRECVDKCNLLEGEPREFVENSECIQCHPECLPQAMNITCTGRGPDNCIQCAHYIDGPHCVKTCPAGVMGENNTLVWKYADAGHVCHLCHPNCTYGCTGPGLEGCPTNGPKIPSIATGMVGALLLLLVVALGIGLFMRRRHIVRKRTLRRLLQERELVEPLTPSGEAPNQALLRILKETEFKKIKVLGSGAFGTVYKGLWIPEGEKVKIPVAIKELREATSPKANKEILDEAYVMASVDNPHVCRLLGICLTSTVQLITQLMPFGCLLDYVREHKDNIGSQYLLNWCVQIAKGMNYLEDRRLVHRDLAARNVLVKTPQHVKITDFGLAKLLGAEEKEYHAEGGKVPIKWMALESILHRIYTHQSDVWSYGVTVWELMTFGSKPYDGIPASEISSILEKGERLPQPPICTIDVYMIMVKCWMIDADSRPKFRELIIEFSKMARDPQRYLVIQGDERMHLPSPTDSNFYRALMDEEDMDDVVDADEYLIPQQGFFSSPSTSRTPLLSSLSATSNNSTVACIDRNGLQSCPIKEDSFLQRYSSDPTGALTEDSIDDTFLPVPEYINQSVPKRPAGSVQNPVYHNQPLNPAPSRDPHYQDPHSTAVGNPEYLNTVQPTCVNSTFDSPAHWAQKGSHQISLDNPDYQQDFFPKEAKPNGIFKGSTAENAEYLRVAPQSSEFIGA
Procedure: The kinase activity of EGFR was assessed for 6a, 6c and 6i hybrids using EGFR kinase assay kit (BPS Bioscience, San Diego, CA, USA) based on the manufacturer’s instructions. Three independent experiments were performed for each compound and Mean ± SE were calculated.

p53 = p53 level ELISA in MCF-7 cells; assay type: cell-based, human; settings: for p53 FLD: MCF-7, at IC50, fold of control cells; for p53 Conc.(pg/ml): control 257 ± 19.1
Procedure: p53 level was determined in MCF-7 cell line using Human p53 ELISA Kit (Sigma Aldrich, St. Louis, MO, USA). The cells were lysed using cell extraction buffer. Cell lysate was diluted with standard diluent buffer, then added to p53 monoclonal antibody pre-coated 96-wells plate. The plate incubated for 2 h at room temperature. Anti-p53 detection antibody was added to the plate and re-incubated at room temperature for 1 h. The plate washed four times using wash buffer followed by addition of anti-rabbit IgG-Horseradish Peroxidase (HRP) working solution. The plate incubated at room temperature for 30 min. Chromogen TMB (tetramethylbenzidine) was added to induce colour reaction. The absorbance of the plate was read at 450 nm using microplate reader (Bio-Rad Laboratories, Hercules, CA, USA). Three independent experiments were performed for each compound and Mean ± SE were calculated.

topoisomerase II = biological target: T2, topoisomerase II (Homo sapiens, UniProt P11388); assay: DNA topo II inhibition assay (kDNA, agarose gel); assay type: biochemical; settings: 10 µM, with topo II
T2 construct: purchased Topogen, USA
T2 sequence (P11388 whole entry): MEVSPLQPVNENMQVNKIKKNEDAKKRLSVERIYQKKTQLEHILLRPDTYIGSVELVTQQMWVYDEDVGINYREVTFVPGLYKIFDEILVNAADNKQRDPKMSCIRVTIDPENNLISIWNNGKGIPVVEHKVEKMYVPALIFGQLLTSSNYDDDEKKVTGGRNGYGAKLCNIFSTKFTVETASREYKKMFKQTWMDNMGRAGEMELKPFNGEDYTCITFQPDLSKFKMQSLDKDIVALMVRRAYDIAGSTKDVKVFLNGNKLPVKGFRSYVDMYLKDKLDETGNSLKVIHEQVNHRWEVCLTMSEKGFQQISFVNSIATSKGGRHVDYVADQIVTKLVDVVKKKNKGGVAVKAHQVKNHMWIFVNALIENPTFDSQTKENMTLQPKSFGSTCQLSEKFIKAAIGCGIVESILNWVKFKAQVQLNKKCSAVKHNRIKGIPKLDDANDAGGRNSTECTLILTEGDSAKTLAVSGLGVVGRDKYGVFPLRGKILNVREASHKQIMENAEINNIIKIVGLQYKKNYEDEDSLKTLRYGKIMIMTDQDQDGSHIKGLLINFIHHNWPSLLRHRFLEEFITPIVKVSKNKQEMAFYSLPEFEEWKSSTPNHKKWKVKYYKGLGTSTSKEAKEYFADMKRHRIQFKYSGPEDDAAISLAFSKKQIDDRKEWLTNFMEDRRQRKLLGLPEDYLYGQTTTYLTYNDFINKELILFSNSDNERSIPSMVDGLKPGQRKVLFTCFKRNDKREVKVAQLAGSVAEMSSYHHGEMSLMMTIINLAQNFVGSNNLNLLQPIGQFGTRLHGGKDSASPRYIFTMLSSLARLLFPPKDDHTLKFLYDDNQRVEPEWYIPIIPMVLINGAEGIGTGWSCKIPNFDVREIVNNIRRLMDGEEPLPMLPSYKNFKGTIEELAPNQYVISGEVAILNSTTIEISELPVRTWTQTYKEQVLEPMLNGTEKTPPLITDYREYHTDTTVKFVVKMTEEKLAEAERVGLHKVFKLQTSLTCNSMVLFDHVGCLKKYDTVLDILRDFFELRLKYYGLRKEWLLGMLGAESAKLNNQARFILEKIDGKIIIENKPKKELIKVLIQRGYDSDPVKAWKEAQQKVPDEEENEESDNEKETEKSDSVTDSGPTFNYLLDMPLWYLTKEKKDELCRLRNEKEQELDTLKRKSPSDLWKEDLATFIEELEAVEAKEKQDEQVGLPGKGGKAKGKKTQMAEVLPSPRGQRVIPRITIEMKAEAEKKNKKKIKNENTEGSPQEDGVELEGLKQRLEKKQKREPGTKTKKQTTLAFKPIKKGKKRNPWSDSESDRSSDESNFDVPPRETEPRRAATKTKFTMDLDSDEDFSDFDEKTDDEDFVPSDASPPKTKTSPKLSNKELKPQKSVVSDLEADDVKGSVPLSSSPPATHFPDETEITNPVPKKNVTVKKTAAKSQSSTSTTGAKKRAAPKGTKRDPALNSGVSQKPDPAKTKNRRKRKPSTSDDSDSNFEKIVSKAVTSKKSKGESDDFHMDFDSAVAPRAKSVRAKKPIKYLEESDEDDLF
Procedure: Using the procedure outlined in topoisomerase II Drug Screening Kit (Topogen, USA), the effect of 6a, 6c and 6i on topoisomerase II inhibition and the effectiveness of catenated/decatenated kDNA formation were examined. The reaction mixture includes 10 mM MgCl2, 50 mM Tris-HCl, 0.5 mM dithiothreitol, […]/ml bovine serum albumin, 200–300 ng of kDNA and topoisomerase II. […] After the reaction samples were incubated for 30 min at 37 °C, the reaction was stopped by adding […] of a stop buffer containing 10% (w/v) SDS and […] of 0.5 mg/ml proteinase followed by incubating the mixture for 10 min at 37 °C. The reaction mixture was separated by 1% agarose gel and examined after being stained with ethidium bromide.

[1] = MCF-7, concentration used for treatment, read-out: IC50 µM (Table 4)
[2] = MCF-7, concentration used for treatment, read-out: IC50 (Table 2)
[3] = MCF-7, concentration used for treatment, read-out: IC50 (Table 3)
[4] = MTT, 24 h, mean ± SE of three experiments, read-out: IC50 (µM) ± S.E. MCF-7

SMILES | Bax Conc.(pg/ml) (Bax) [pg/mL] | Bax FLD (Bax) [fold] | increase in cell necrosis compared to control (MCF-7 cells) [folds] | increase of cell population in early apoptotic stage compared to control (MCF-7 cells) [folds] | increase of late apoptotic cell population compared to control (MCF-7 cells) [folds] | Apoptosis Late (MCF-7 cells) | Apoptosis Early (MCF-7 cells) | Necrosis (MCF-7 cells) | Apoptosis Total (MCF-7 cells) | IC50 (A549) [µM] | IC50 (MCF-7; [1]) [µM] | IC50 (MCF-7; [2]) [µM] | IC50 (MCF-7; [3]) [µM] | IC50 (MCF-7; [4]) [µM] | IC50 (HCT-116) [µM] | Bcl-2 Conc.(ng/ml) (Bcl-2) [ng/mL] | Bcl-2 FLD (Bcl-2) [fold] | Caspase 7 FLD (caspase-7) [fold] | Caspase 7 Conc.(ng/ml) (caspase-7) [ng/mL] | p53 FLD (p53) [fold] | other results
N#Cc1c(-c2ccc([N+](=O)[O-])cc2)nc2sc3c(n2c1=O)C(=O)c1ccccc1C3=O [Compound 6i, 2–(4-Nitrophenyl)-4,6,11-trioxo-6,11-dihydro-4H-naphtho[’',’':4,5]thiazolo-[3,2-a]pyrimidine-3-carbonitrile] | 581.5 ± 8.7 | 6.99 | 10.52 | 9.57 | 182.06 | 27.31 | 3.64 | 14.31 | 45.26 | 1.55 ± 0.13 | 1.79 | 1.79 | 1.79 | 1.79 ± 0.11 | 2.29 ± 0.18 | 3.64 ± 0.08 | 0.55 | 20.41 | 9.20 ± 0.87 | 5 | fold superior activity than Dox (A549; A549, ratio of IC50 values): 3.19 fold; fold the activity of erlotinib (A549; A549, ratio of IC50 values): 3.35 fold; fold superior activity than Dox (MCF-7; MCF-7, ratio of IC50 values): 3.13 fold; fold the activity of erlotinib (MCF-7; MCF-7, ratio of IC50 values): 4.05 fold; fold superior activity than Dox (HCT-116; HCT-116, ratio of IC50 values): 2.96 fold; fold the activity of erlotinib (HCT-116; HCT-116, ratio of IC50 values): 3.77 fold; EGFR inhibitory activity IC50 (EGFR): nearly equipotent to that of erlotinib; increase in p53 level compared to Dox treated cells (p53; MCF-7, at IC50): 1.2 fold; p53 Conc.(pg/ml) (p53; MCF-7, at IC50): 1285 ± 29.9 pg/mL; linear DNA formation from catenated kDNA (topoisomerase II): the production of linear DNA was not noticed
COc1ccc(-c2nc3sc4c(n3c(=O)c2C#N)C(=O)c2ccccc2C4=O)cc1 [Compound 6a, 2–(4-Methoxyphenyl)-4,6,11-trioxo-6,11-dihydro-4H-naphtho[2′,3′:4,5]-thiazolo[3,2-a]pyrimidine-3-carbonitrile] | 436.1 ± 5.1 | 5.24 | 6.78 | 13.84 | 126.13 | 18.92 | 5.26 | 9.23 | 33.41 | 2.81 ± 0.18 | 3.34 | 3.34 | 3.34 | 3.34 ± 0.21 | 3.58 ± 0.24 | 3.99 ± 0.24 | 0.61 | 14.93 | 6.72 ± 0.23 | 3.6 | IC50 (EGFR; read-out: EGFR inhibitory activity IC50): 16 ± 0.47 nM; p53 Conc.(pg/ml) (p53; MCF-7, at IC50): 922 ± 37.5 pg/mL; linear DNA formation from catenated kDNA (topoisomerase II): the production of linear DNA was not noticed
